Measurements published in PMC11121495, “Blap-6, a Novel Antifungal Peptide from the Chinese Medicinal Beetle Blaps rhynchopetera against Cryptococcus neoformans” (International Journal of Molecular Sciences, 2024).
Converted amounts (≈) assume the structure as drawn. Read-outs that look alike come from different tables or passages of the source. Where no end group is shown, it is not given here.

Key:
[1] = system: C. albicans; experiment: microbe, parasite or virus in culture; type: cell-based, Candida albicans (ATCC 10231)
Text: (§1) These standard strains of Escherichia coli (E. coli, ATCC 8739), Staphylococcus aureus (S. aureus, ATCC 6538), Pseudomonas aeruginosa (P. aeruginosa, ATCC 27853), Acinetobacter baumannii (A. baumannii, ATCC 1968), Candida albicans (ATCC 10231), and the clinical strain of Methicillin-resistant Staphylococcus aureus (MRSA, MRSA-Z) were obtained from Kunming Medical University. The standard strain of C. neoformans (ATCC 32045) was purchased from Shanghai Yingxin Laboratory Co., Ltd. (CAS NO. YXJ50058). Different strains of E. coli, S. aureus, MRSA, P. aeruginosa, and A. baumannii were cultured with shaking at 37 °C in Luria–Bertani (LB) medium. C. neoformans was cultured at 35 °C in Sabouraud Dextrose Agar (SDA) medium according to the manufacturer’s instructions.
(§2) According to Clinical and Laboratory Standards Institute (CLSI) protocols, the minimum inhibitory concentration (MIC) is the minimum drug concentration at which antibiotics inhibit the growth and reproduction of strains. The different strains were grown in their corresponding media at 35 °C or 37 °C until they entered the exponential growth phase. Fluconazole and amphotericin B were used as positive controls, and sterile 0.9% NaCl was used as a negative control. The peptides were diluted to various concentrations in sterile saline. According to 1 OD = 1 × 10^9 CFU/mL, the above bacterial solution was diluted to 2 × 10^5 CFU/mL with the corresponding medium. In advance, 100 μL of normal saline was added to a sterile 96-well plate, and 200 μL of the sample to be tested was added to the first well. The sample to be tested was subjected to double gradient dilution, and then 100 μL of bacterial solution with a concentration of 2 × 10^5 was added to each well. It was cultured at 35 °C or 37 °C for different times. The light absorption value of the bacterial solution at 600 nm was detected by a microplate reader (Epoch Etock, Biotek, Winooski, VT, USA), and the average concentration of the samples in the pores and adjacent pores that could not detect microbial growth was used as the MIC value.

[2] = system: C. neoformans; experiment: microbe, parasite or virus in culture; type: cell-based, Cryptococcus neoformans (ATCC 32045)
Text: as §1, §2

[3] = system: E. coli; experiment: microbe, parasite or virus in culture; type: cell-based, Escherichia coli (ATCC 8739)
Text: as §1, §2

[4] = system: S. aureus; experiment: microbe, parasite or virus in culture; type: cell-based, Staphylococcus aureus (ATCC 6538)
Text: as §1, §2

[5] = system: A. baumannii; experiment: microbe, parasite or virus in culture; type: cell-based, Acinetobacter baumannii (ATCC 1968)
Text: as §1, §2

[6] = system: P. aeruginosa; experiment: microbe, parasite or virus in culture; type: cell-based, Pseudomonas aeruginosa (ATCC 27853)
Text: as §1, §2

[7] = system: MRSA; experiment: microbe, parasite or virus in culture; type: cell-based
Text: as §1, §2

[8] = system: C. neoformans ATCC 32045; experiment: Fungal-killing kinetics; type: cell-based, Cryptococcus neoformans; details: positive control; concentration not stated in the sentence (1×, 5×, 10 × MIC tested)
Description: The single colony of C. neoformans ATCC 32045 was selected and cultured at 180 rpm and 37 °C, washed three times with normal saline, and then resuspended, and the fungal solution was diluted to 1 × 10^6 CFU/mL with SDB medium. The positive control was fluconazole, and the negative control was normal saline. […] The fungal liquid after adding the sample was quickly put into the 37 °C constant temperature incubator, and the shaking culture was carried out at 180 rpm. […] The plate was placed in a constant temperature incubator for inverted culture for 72 h at 37 °C, and then the single colony on the plate was counted.

[9] = Candida albicans, ATCC10231, ATCC 10231, double gradient dilution, 2 × 10^5 CFU/mL, OD 600 nm, mean of three independent experiments
[10] = Cryptococcus neoformans, ATCC32045, ATCC 32045, double gradient dilution, 2 × 10^5 CFU/mL, 35 °C, OD 600 nm, mean of three independent experiments

**Q.** Which results are given for `C[C@@H]1[C@H](O)[C@@H](C)/C=C/C=C/C=C/C=C/C=C/C=C/C=C/[C@H](O[C@@H]2O[C@H](C)[C@@H](O)[C@H](N)[C@@H]2O)C[C@@H]2O[C@](O)(C[C@@H](O)C[C@@H](O)[C@H](O)CC[C@@H](O)C[C@@H](O)CC(=O)O[C@H]1C)C[C@H](O)[C@H]2C(=O)O` [Amphotericin B, reference compound]?
**A.** MIC [1, 9]: 0.05 µM (≈ 0.0462 µg/mL); MIC [2, 10]: 0.05 µM (≈ 0.0462 µg/mL)

**Q.** Which results are given for `CC1(C)S[C@@H]2[C@H](NC(=O)[C@H](N)c3ccccc3)C(=O)N2[C@H]1C(=O)O` [Ampicillin, reference compound]?
**A.** MIC ([3]; Escherichia coli, ATCC8739, ATCC 8739, double gradient dilution, 2 × 10^5 CFU/mL, LB, 37 °C, OD 600 nm, mean of three independent experiments): 31.6 µM (≈ 11 µg/mL); MIC ([4]; Staphylococcus aureus, ATCC6538, ATCC 6538, double gradient dilution, 2 × 10^5 CFU/mL, LB, 37 °C, OD 600 nm, mean of three independent experiments): 63.1 µM (≈ 22.1 µg/mL); MIC ([5]; Acinetobacter baumannii, ATCC1968, ATCC 1968, double gradient dilution, 2 × 10^5 CFU/mL, LB, 37 °C, OD 600 nm, mean of three independent experiments): 31.6 µM (≈ 11 µg/mL); MIC ([6]; Pseudomonas aeruginosa, ATCC27853, ATCC 27853, double gradient dilution, 2 × 10^5 CFU/mL, LB, 37 °C, OD 600 nm, mean of three independent experiments): 31.6 µM (≈ 11 µg/mL); MIC ([7]; Staphylococcus aureus, clinical strain MRSA-Z, double gradient dilution, 2 × 10^5 CFU/mL, LB, 37 °C, OD 600 nm, mean of three independent experiments): 126 µM (≈ 44.1 µg/mL)

**Q.** For `OC(Cn1cncn1)(Cn1cncn1)c1ccc(F)cc1F` [Fluconazole, reference compound], which MIC [1, 9] is on record?
**A.** 0.61 µM (≈ 0.187 µg/mL)

**Q.** And the MIC [2, 10]?
**A.** 6.36 µM (≈ 1.95 µg/mL)

**Q.** What about the “time required for fungicidal rate to reach more than 90%” value [8] of the same molecule?
**A.** 360 min

**Q.** With FIKKMLGNFSNYVRRPGKR [blap-9] as the molecule, how does the MIC [3] read?
**A.** 81.10 µM

**Q.** What about the MIC [4] of the same molecule?
**A.** 81.10 µM

**Q.** And the MIC [5]?
**A.** 81.10 µM

**Q.** And the MIC [6]?
**A.** 81.10 µM

**Q.** And the MIC [7]?
**A.** 81.10 µM

**Q.** And the MIC [1]?
**A.** 40.55 µM

**Q.** What about the MIC [2] of the same molecule?
**A.** 81.10 µM

**Q.** What does the source list for KRALSLPKMREDRLLYRGRA [blap-7]?
**A.** MIC [1]: 156.30 µM; MIC [2]: 312.50 µM

**Q.** For RWKERKKWQKRWKRKKG [blap-8], which MIC [3] is on record?
**A.** 312.50 µM

**Q.** And the MIC [4]?
**A.** 156.3 µM

**Q.** What about the MIC [6] of the same molecule?
**A.** 7.81 µM

**Q.** And the MIC [7]?
**A.** 156.30 µM

**Q.** What about the MIC [1] of the same molecule?
**A.** 19.53 µM

**Q.** What about the MIC [2] of the same molecule?
**A.** 19.53 µM

**Q.** With RWNTSRWLRL [blap-10] as the molecule, how does the MIC [6] read?
**A.** 312.50 µM

**Q.** And the MIC [7]?
**A.** 19.54 µM

**Q.** What about the MIC [1] of the same molecule?
**A.** 156.30 µM

**Q.** And the MIC [2]?
**A.** 312.5 µM
